Measurements reported in ChEMBL document CHEMBL1201862, “PubChem BioAssay data set” (2004).
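Grown in 96-well plates, cells were treated for 48 hours with each compound at five concentrations. Insufficient inhibition: endpoint recorded as highest concentration tested. The concentration for 50% growth inhibition is given as GI50.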 The source made the active and inactive calls. Cut-off read from the data, not from the text of the source: active = GI50 up to about 1.1 µM and inactive = higher.

What was measured:
Experiment in all cases: inhibition of tumour cell growth, NCI panel, 48 h
T47D = system: T47D
CCRF-CEM = system: CCRF-CEM
HCT-116 = system: HCT-116
K562 = system: K562
HT-29 = system: HT-29
CAKI-1 = system: CAKI-1
LOX IMVI = system: LOX IMVI
MOLT-4 = system: MOLT-4
RPMI-8226 = system: RPMI-8226
A498 = system: A498
MDA-MB-435 = system: MDA-MB-435
SF-539 = system: SF-539
SK-MEL-28 = system: SK-MEL-28
SR = system: SR
NCI-H460 = system: NCI-H460
MDA-N = system: MDA-N
OVCAR-8 = system: OVCAR-8
SF-295 = system: SF-295
A549 = system: A549
NCI-H23 = system: NCI-H23
MDA-MB-231 = system: MDA-MB-231
NCI/ADR-RES = system: NCI/ADR-RES
OVCAR-3 = system: OVCAR-3
TK-10 = system: TK-10
HOP-92 = system: HOP-92
NCI-H226 = system: NCI-H226
ACHN = system: ACHN
786-0 = system: 786-0
MCF7 = system: MCF7
HL-60 = system: HL-60
OVCAR-4 = system: OVCAR-4
HCT-15 = system: HCT-15
SK-MEL-5 = system: SK-MEL-5
UO-31 = system: UO-31
M14 = system: M14
BT-549 = system: BT-549
UACC-62 = system: UACC-62
UACC-257 = system: UACC-257
RXF 393 = system: RXF 393
DU-145 = system: DU-145
COLO 205 = system: COLO 205
OVCAR-5 = system: OVCAR-5
SNB-19 = system: SNB-19
IGROV-1 = system: IGROV-1
SW-620 = system: SW-620
EKVX = system: EKVX
SF-268 = system: SF-268
NCI-H522 = system: NCI-H522
Hs-578T = system: Hs-578T
KM12 = system: KM12
PC-3 = system: PC-3
HOP-62 = system: HOP-62
SNB-75 = system: SNB-75
U-251 = system: U-251
SK-OV-3 = system: SK-OV-3
HCC 2998 = system: HCC 2998
SN12C = system: SN12C
SK-MEL-2 = system: SK-MEL-2
Malme-3M = system: Malme-3M

## CCOC(=O)c1c(Sc2ccc([N+](=O)[O-])cc2[N+](=O)[O-])nc2c3ccccc3ccn12
T47D
  GI50: > 100 µM (inactive)
CCRF-CEM
  GI50: 40.7 µM (inactive)
HCT-116
  GI50: > 91 µM (inactive)
K562
  GI50: > 100 µM (inactive)
HT-29
  GI50: > 100 µM (inactive)
CAKI-1
  GI50: 15.6 µM (inactive)
LOX IMVI
  GI50: > 100 µM (inactive)
MOLT-4
  GI50: > 100 µM (inactive)
RPMI-8226
  GI50: 36.3 µM (inactive)
A498
  GI50: 62.8 µM (inactive)
MDA-MB-435
  GI50: > 100 µM (inactive)
SF-539
  GI50: 15 µM (inactive)
SK-MEL-28
  GI50: > 100 µM (inactive)
SR
  GI50: > 100 µM (inactive)
NCI-H460
  GI50: > 55.7 µM (inactive)
MDA-N
  GI50: > 100 µM (inactive)
OVCAR-8
  GI50: 33.8 µM (inactive)
SF-295
  GI50: 28.7 µM (inactive)
A549
  GI50: > 100 µM (inactive)
NCI-H23
  GI50: > 91 µM (inactive)
MDA-MB-231
  GI50: 29.1 µM (inactive)
NCI/ADR-RES
  GI50: > 71.9 µM (inactive)
OVCAR-3
  GI50: > 92.5 µM (inactive)
TK-10
  GI50: > 55.7 µM (inactive)
HOP-92
  GI50: 13.9 µM (inactive)
NCI-H226
  GI50: 83.6 µM (inactive)
ACHN
  GI50: 19.3 µM (inactive)
786-0
  GI50: 5.6 µM (inactive)
MCF7
  GI50: > 100 µM (inactive)
HL-60
  GI50: 11.5 µM (inactive)
OVCAR-4
  GI50: 10.7 µM (inactive)
HCT-15
  GI50: > 100 µM
SK-MEL-5
  GI50: 80.2 µM (inactive)
UO-31
  GI50: > 41.9 µM (inactive)
M14
  GI50: > 100 µM (inactive)
BT-549
  GI50: > 75.2 µM (inactive)
UACC-62
  GI50: > 39.8 µM (inactive)
UACC-257
  GI50: > 100 µM (inactive)
RXF 393
  GI50: 21 µM (inactive)
DU-145
  GI50: > 100 µM (inactive)
COLO 205
  GI50: > 100 µM (inactive)
OVCAR-5
  GI50: > 100 µM (inactive)
SNB-19
  GI50: > 68.1 µM (inactive)
IGROV-1
  GI50: > 31.6 µM (inactive)
SW-620
  GI50: > 100 µM (inactive)
EKVX
  GI50: > 100 µM (inactive)
SF-268
  GI50: 28.6 µM (inactive)
NCI-H522
  GI50: 41.7 µM (inactive)
Hs-578T
  GI50: 13.8 µM (inactive)
KM12
  GI50: > 100 µM (inactive)
PC-3
  GI50: > 100 µM (inactive)
HOP-62
  GI50: 13.1 µM (inactive)
SNB-75
  GI50: 13.3 µM (inactive)
U-251
  GI50: 31.8 µM (inactive)
SK-OV-3
  GI50: 15.9 µM (inactive)
HCC 2998
  GI50: > 28.6 µM (inactive)
SN12C
  GI50: 99.1 µM (inactive)
SK-MEL-2
  GI50: > 100 µM (inactive)

## CC1C2C=CC1C(c1c3ccc(=O)c(O)c-3oc3c(O)c(O)ccc13)C2C(=O)O (centres undefined)
T47D
  GI50: > 100 µM (inactive)
CCRF-CEM
  GI50: 1.01 µM (active)
HCT-116
  GI50: 27.8 µM (inactive)
K562
  GI50: 21.4 µM (inactive)
HT-29
  GI50: > 100 µM (inactive)
CAKI-1
  GI50: > 100 µM (inactive)
LOX IMVI
  GI50: 20.9 µM (inactive)
MOLT-4
  GI50: 21.6 µM (inactive)
RPMI-8226
  GI50: 23.2 µM (inactive)
A498
  GI50: > 100 µM (inactive)
MDA-MB-435
  GI50: 19.6 µM (inactive)
SK-MEL-28
  GI50: > 100 µM (inactive)
SR
  GI50: 33.9 µM (inactive)
NCI-H460
  GI50: > 100 µM (inactive)
MDA-N
  GI50: 21.4 µM (inactive)
OVCAR-8
  GI50: > 100 µM (inactive)
SF-295
  GI50: 43.2 µM (inactive)
A549
  GI50: 35 µM (inactive)
NCI-H23
  GI50: 35.6 µM (inactive)
MDA-MB-231
  GI50: > 100 µM (inactive)
NCI/ADR-RES
  GI50: > 100 µM (inactive)
OVCAR-3
  GI50: > 100 µM (inactive)
TK-10
  GI50: > 100 µM (inactive)
HOP-92
  GI50: 75 µM (inactive)
NCI-H226
  GI50: 10.2 µM (inactive)
ACHN
  GI50: 53.5 µM (inactive)
786-0
  GI50: 61 µM (inactive)
MCF7
  GI50: 20.7 µM (inactive)
HL-60
  GI50: 44.3 µM (inactive)
OVCAR-4
  GI50: 78.9 µM (inactive)
HCT-15
  GI50: 47.2 µM
SK-MEL-5
  GI50: 91.6 µM (inactive)
UO-31
  GI50: > 100 µM (inactive)
M14
  GI50: > 100 µM (inactive)
BT-549
  GI50: > 100 µM (inactive)
UACC-62
  GI50: > 100 µM (inactive)
UACC-257
  GI50: > 100 µM (inactive)
RXF 393
  GI50: > 100 µM (inactive)
DU-145
  GI50: > 100 µM (inactive)
COLO 205
  GI50: > 100 µM (inactive)
OVCAR-5
  GI50: > 100 µM (inactive)
SNB-19
  GI50: > 100 µM (inactive)
IGROV-1
  GI50: > 100 µM (inactive)
SW-620
  GI50: 34.3 µM (inactive)
EKVX
  GI50: 50.9 µM (inactive)
SF-268
  GI50: > 100 µM (inactive)
Hs-578T
  GI50: 89.5 µM (inactive)
KM12
  GI50: 50.2 µM (inactive)
PC-3
  GI50: > 100 µM (inactive)
HOP-62
  GI50: > 100 µM (inactive)
U-251
  GI50: 36.5 µM (inactive)
SK-OV-3
  GI50: > 100 µM (inactive)
HCC 2998
  GI50: > 100 µM (inactive)
SN12C
  GI50: 24 µM (inactive)
SK-MEL-2
  GI50: > 100 µM (inactive)

## COc1cc(S(=O)(=O)Nc2nc(-c3ccc(N4C(=O)/C(=C/C=C/c5ccccc5)N=C4c4ccccc4)cc3)cs2)ccc1Cl
T47D
  GI50: 48.1 µM (inactive)
CCRF-CEM
  GI50: 58.7 µM (inactive)
HCT-116
  GI50: 78.9 µM (inactive)
K562
  GI50: 72.3 µM (inactive)
HT-29
  GI50: > 100 µM (inactive)
CAKI-1
  GI50: > 100 µM (inactive)
LOX IMVI
  GI50: 53.5 µM (inactive)
MOLT-4
  GI50: 69 µM (inactive)
A498
  GI50: > 100 µM (inactive)
MDA-MB-435
  GI50: > 100 µM (inactive)
SF-539
  GI50: > 100 µM (inactive)
SK-MEL-28
  GI50: 81.3 µM (inactive)
SR
  GI50: 58.3 µM (inactive)
NCI-H460
  GI50: > 100 µM (inactive)
MDA-N
  GI50: > 100 µM (inactive)
OVCAR-8
  GI50: > 100 µM (inactive)
SF-295
  GI50: > 100 µM (inactive)
A549
  GI50: > 100 µM (inactive)
NCI-H23
  GI50: > 100 µM (inactive)
MDA-MB-231
  GI50: 34.3 µM (inactive)
NCI/ADR-RES
  GI50: > 100 µM (inactive)
OVCAR-3
  GI50: > 100 µM (inactive)
TK-10
  GI50: > 100 µM (inactive)
HOP-92
  GI50: 28.3 µM (inactive)
NCI-H226
  GI50: > 100 µM (inactive)
ACHN
  GI50: > 100 µM (inactive)
786-0
  GI50: > 100 µM (inactive)
MCF7
  GI50: 43 µM (inactive)
HL-60
  GI50: 60.7 µM (inactive)
OVCAR-4
  GI50: > 100 µM (inactive)
HCT-15
  GI50: > 100 µM
SK-MEL-5
  GI50: 53 µM (inactive)
UO-31
  GI50: > 100 µM (inactive)
M14
  GI50: > 100 µM (inactive)
BT-549
  GI50: 45 µM (inactive)
UACC-62
  GI50: 35 µM (inactive)
UACC-257
  GI50: > 100 µM (inactive)
RXF 393
  GI50: 37.6 µM (inactive)
DU-145
  GI50: > 100 µM (inactive)
COLO 205
  GI50: > 100 µM (inactive)
OVCAR-5
  GI50: > 100 µM (inactive)
SNB-19
  GI50: 99.3 µM (inactive)
IGROV-1
  GI50: 37 µM (inactive)
SW-620
  GI50: > 100 µM (inactive)
SF-268
  GI50: 28.9 µM (inactive)
NCI-H522
  GI50: 48.2 µM (inactive)
Hs-578T
  GI50: 36.2 µM (inactive)
KM12
  GI50: > 100 µM (inactive)
PC-3
  GI50: > 100 µM (inactive)
HOP-62
  GI50: > 100 µM (inactive)
SNB-75
  GI50: 93.1 µM (inactive)
U-251
  GI50: 53.1 µM (inactive)
SK-OV-3
  GI50: > 100 µM (inactive)
SN12C
  GI50: > 100 µM (inactive)
SK-MEL-2
  GI50: 78.3 µM (inactive)
Malme-3M
  GI50: 29.2 µM (inactive)
